For test [1], the system named is apomorphine induced climbing. Put plainly: Suppressive activity on apomorphine induced climbing in mice. In kind it is in vivo. Particulars: 30 minutes before apomorphine 2 mg/kg s.c., ICR mice; for Suppression rate (mg/kg, p.o): apomorphine single administered group = 100 %. The procedure: Administering dopamine agonist, apomorphine in mouse resulted various abnormal movings, and especially, a climbing the cage has been known to be correlated with human schizophrenia.
Compounds of the present invention were administered orally or intraperitoneally in ICR mice, male (Charles River Corp.), and after 30 minutes apomorphine 2 mg/kg was administered subcutaneously. Climbing behaviors of 3 minutes after 20-23 minutes of apomorphine administration were observed. Climbing behavior was observed by entering the mice in stainless steel made wire netting cage and measuring a time remaining above the upper part of half part of the cage at observing. A climbing time of apomorphine single administered group is set as 100 % and shortened time by administering the drug is shown in suppression rate.

A further test concerns the target σ-receptor. The experiment in a line: Binding activity for σ-receptor, [3H]DTG displacement in rat brain membrane preparation. More on the design: species or system Sprague-Dowley rat. As to conditions: for Ki: rat whole brain (except cerebella) membrane, [3H]DTG 3 nM, 25°C 60 minutes, compounds tested as hydrochloride, read-out: Sigma [^3H] DTG Ki.

Consider `CN(C)CCCN1c2ccccc2Sc2ccc(Cl)cc21` [Chlorpromazine, reference compound], for which the “Suppression (mg/kg, i.p.)” value in test [1] (1 mg/kg i.p.) was 40 % (1).

The Kd is the concentration at which binding is half-saturated. In the case of `Cc1ccccc1NC(=N)Nc1ccccc1C` [DTG, 1,3-di(2-tolyl) guanidine, reference compound], the Kd on σ-receptor (radioligand constant used to calculate Ki, read-out: Kd, affinity of radioactive ligand for receptor) was 10.6 nM.

By Ki is commonly meant a measure of affinity in units of concentration, obtained from inhibition or displacement. Turning to `CC1(C)C2CC[C@]1(C)CN(CCC13CC4CC(CC(C4)C1)C3)C2` [Example 1, (1S)-3-[2-(1-adamantyl)ethyl]-1,8,8-trimethyl-3-azabicyclo [3.2.1] octane], the “Suppression rate (mg/kg, p.o)” value in test [1] (30 mg/kg p.o.) is reported as 37 % (30). Moreover, the Ki at σ-receptor was 0.26 nM.

For the compound `CC1(C)C2CC[C@]1(C)CN(CCC1CCCC1)C2` [Example 3, (1S)-3-(2-cyclopentylethyl)-1,8,8-trimethyl-3-azabicyclo[3.2.1] octane], at σ-receptor, the Ki was 0.53 nM.

On to `CC1(C)C2CC[C@]1(C)CN(CCC1CCCCC1)C2` [Example 4, (1S)-3-(2-cyclohexylethyl)-1,8,8-trimethyl-3-azabicyclo[3.2.1] octane], for which the Ki on σ-receptor is 0.28 nM.

As to `CC1(C)C2CC[C@@]1(C)CN(CCC1CCCCC1)C2` [Example 6, (1R)-3-(2-cyclohexylethyl)-1,8,8-trimethyl-3-azabicyclo[3.2.1] octane], the Ki on σ-receptor worked out at 0.16 nM.

For the compound `CC1(C)C2CC[C@]1(C)CN(CCC1CCCCCC1)C2` [Example 7, (1S)-3-(2-cycloheptylethyl)-1,8,8-trimethyl-3-azabicyclo[3.2.1] octane], the Ki at σ-receptor came out at 0.57 nM.

Regarding `CC1(C)C2CC[C@]1(C)CN(CCC1CCCCCCC1)C2` [Example 8, (1S)-3-(2-cyclooctylethyl)-1,8,8-trimethyl-3-azabicyclo[3,2,1] octane], on σ-receptor, the Ki is 0.5 nM.

Consider `CC1(C)C2CC[C@]1(C)CN(CCCCC1CCCCC1)C2` [Example 9, (1S)-3-(4-cyclohexyl-1-butyl)-1,8,8-trimethyl-3-azabicyclo[3.2.1] octane], for which the Ki at σ-receptor came to 3.72 nM.

Consider `CC1(C)C2CC[C@]1(C)CN(CCCC1CCCCC1)C2` [Example 10, (1S)-3-(3-cyclohexylpropyl)-1,8,8-trimethyl-3-azabicyclo[3.2.1] octane], for which, at σ-receptor, the Ki is 0.92 nM.

Consider `CC1(C)C2CC[C@]1(C)CN(CC1CCCCC1)C2` [Example 11, (1S)-3-cyclohexylmethyl-1,8,8-trimethyl-3-azabicyclo[3.2.1] octane], for which, on σ-receptor, the Ki amounted to 3.63 nM.

Turning to `CC1(C)C2CC[C@@]1(C)CN(CC1CCCCC1)C2` [Example 12, (1R)-3-cyclohexylmethyl-1,8,8-trimethyl-3-azabicyclo[3.2.1] octane], the Ki on σ-receptor stood at 2.53 nM.

On to `CC1(C)C2CC[C@]1(C)CN(C1CCCCC1)C2` [Example 13, (1S)-3-cyclohexyl-1,8,8-trimethyl-3-azabicyclo[3.2.1] octane], for which the Ki at σ-receptor came to 6.37 nM.

Consider `CC1(C)C2CC[C@@]1(C)CN(CCC13CC4CC(CC(C4)C1)C3)C2` [Example 14, (1R)-3-[2-(1-adamantyl)ethyl]-1,8,8-trimethyl-3-azabicyclo[3.2.1] octane], for which the Ki on σ-receptor came out at 0.32 nM.

`CC1(C)C2CC[C@]1(C)CN(CCC1C3CC4CC(C3)CC1C4)C2` (stereo partly drawn) [Example 15, (1S)-3-[2-(2-adamantyl)ethyl]-1,8,8-trimethyl-3-azabicyclo[3.2.1] octane]: in test [1] (10 mg/kg p.o.), the “Suppression rate (mg/kg, p.o)” value is 78 % (10). The Ki at σ-receptor was 0.32 nM.

For the compound `CC1(C)C2CC[C@@]1(C)CN(CCC1C3CC4CC(C3)CC1C4)C2` (stereo partly drawn) [Example 16, (1R)-3-[2-(2-adamantyl)ethyl]-1,8,8-trimethyl-3-azabicyclo [3.2.1] octane], the “Suppression rate (mg/kg, p.o)” value in test [1] (30 mg/kg p.o.) was 79 % (30). Further, the Ki on σ-receptor stood at 0.41 nM.

For the compound `CC1CCC(CCN2CC3CC[C@](C)(C2)C3(C)C)CC1` (stereo partly drawn) [Example 18, (1S)-3-[2-(4-methylcyclohexyl)ethyl]-1,8,8-trimethyl-3-azabicyclo [3.2.1] octane], at σ-receptor, the Ki is 2.23 nM.

Consider `CC12CC3CC(C1)CC(CCN1CC4CC[C@](C)(C1)C4(C)C)(C3)C2` [Example 19, (1S)-3-[2-(3-methyl-1-adamantyl)ethyl]-1,8,8-trimethyl-3-azabicyclo [3.2.1] octane], for which the Ki on σ-receptor came out at 0.87 nM.

Consider `CC1(C)[C@H]2CC[C@]1(C)CN(CC13CC4CC(CC1C4)C3)C2` [Example 20, (1S)-3-(3-noradamantylmethyl)-1,8,8-trimethyl-3-azabicyclo[3.2.1] octane], for which the Ki at σ-receptor was determined as 4.16 nM.

On to `CC1(C)C2CC[C@]1(C)CN(CCC1C3CCCC1CCC3)C2` (stereo partly drawn) [Example 21, (1S)-3-[2-(bicyclo [3.3.1]nonan-9-yl)-1-ethyl]-1,8,8-trimethyl-3-azabicyclo [3.2.1] octane], for which, in test [1] (30 mg/kg p.o.), the “Suppression rate (mg/kg, p.o)” value is given as 54 % (30). On σ-receptor, the Ki is 0.88 nM.

As to `CC1(C)C2CC[C@]1(C)CN(CCC1C3CC4CC1CC(O)(C4)C3)C2` (stereo partly drawn) [Example 23, (1S)-3-[2-(5-hydroxy-2-adamantyl)ethyl]-1,8,8-trimethyl-3-azabicyclo [3.2.1] octane], the “Suppression rate (mg/kg, p.o)” value in test [1] (10 mg/kg p.o.) is 69 % (10). Moreover, the Ki at σ-receptor was determined as 0.44 nM.

`COC12CC3CC(C1)C(CCN1CC4CC[C@](C)(C1)C4(C)C)C(C3)C2` (stereo partly drawn) [Example 24, (1S)-3-[2-(5-methoxy-2-adamantyl)ethyl]-1,8,8-trimethyl-3-azabicyclo [3.2.1] octane]: the “Suppression rate (mg/kg, p.o)” value in test [1] (10 mg/kg p.o.) is listed as 78 % (10). The Ki at σ-receptor stood at 0.67 nM.

As to `CC1(C)C2CC[C@]1(C)CN(CCC1C3CC4CC1CC(Cl)(C4)C3)C2` (stereo partly drawn) [Example 25, (1S)-3-[2-(5-chloro-2-adamantyl)ethyl]-1,8,8-trimethyl-3-azabicyclo [3.2.1] octane], the “Suppression rate (mg/kg, p.o)” value in test [1] (30 mg/kg p.o.) is 43 % (30). For the same compound, the Ki at σ-receptor was 0.58 nM.

As for `CC1(C)C2CC[C@]1(C)CN(CCC1C3CC4CC(C3)C(O)C1C4)C2` (stereo partly drawn) [Example 27, (1S)-3-[2-(4-hydroxy-2-adamantyl)ethyl]-1,8,8-trimethyl-3-azabicyclo [3.2.1] octane], at σ-receptor, the Ki turned out to be 1.6 nM.

As to `CC1(C)C2CC[C@]1(C)CN(CCC1C3CC4CC(C3)C(c3ccccc3)C1C4)C2` (stereo partly drawn) [Example 28, (1S)-3-[2-(4-phenyl-2-adamantyl)ethyl]-1,8,8-trimethyl-3-azabicyclo [3.2.1] octane], in test [1] (30 mg/kg p.o.), the “Suppression rate (mg/kg, p.o)” value was 74 % (30).

In the case of `CC1(C)C2CC[C@@]1(C)CN(CCc1cccc3ccccc13)C2` [Example 45, (1R)-3-[2-(1-naphthyl)ethyl]-1,8,8-trimethyl-3-azabicyclo [3.2.1] octane], the Ki on σ-receptor is 2.22 nM.

In the case of `CC1(C)C2CC[C@@]1(C)CN(CCc1ccc3ccccc3c1)C2` [Example 46, (1R)-3-[2-(2-naphthyl)ethyl]-1,8,8-trimethyl-3-azabicyclo [3.2.1] octane], in test [1] (10 mg/kg i.p.), the “Suppression (mg/kg, i.p.)” value was 45 % (10). On σ-receptor, the Ki came out at 8.57 nM.

For `CC1(C)C2CC[C@@]1(C)CN(CCc1ccccn1)C2` [Example 47, (1R)-3-[2-(2-pyridyl)ethyl]-1,8,8-trimethyl-3-azabicyclo [3.2.1] octane], at σ-receptor, the Ki was 16.1 nM.

In the case of `CC1(C)[C@@H]2CC[C@@]1(C)CN(CCc1ccncc1)C2` [Example 48, (1R)-3-[2-(4-pyridyl) ] ethyl-1,8,8-trimethyl-3-azabicyclo [3.2.1] octane], on σ-receptor, the Ki was 15.1 nM.

In the case of `CC1(C)[C@H]2CC[C@]1(C)CN(CCc1cccc3ccccc13)C2` [Example 49, (1S)-3-[2-(1-naphtyl)ethyl]-1,8,8-trimethyl-3-azabicyclo-[3.2.1] octane], the Ki at σ-receptor amounted to 9 nM.

In the case of `CC1(C)C2CC[C@]1(C)CN(CCc1ccc3ccccc3c1)C2` [Example 50, (1S)-3-[2-(2-naphthyl)ethyl]-1,8,8-trimethyl-3-azabicyclo [3.2.1] octane], the “Suppression (mg/kg, i.p.)” value in test [1] (1 mg/kg i.p.) is recorded as 50 % (1). For the same compound, the Ki on σ-receptor was determined as 28.3 nM.

With `CC1(C)C2CC[C@]1(C)CN(CCc1ccccn1)C2` [Example 51, (1S)-3-[2-(2-pyridyl)ethyl]-1,8,8-trimethyl-3-azabicyclo [3.2.1] octane], the Ki on σ-receptor was found to be 31.8 nM.

As to `CC1(C)C2CC[C@]1(C)CN(CCc1cccnc1)C2` [Example 52, (1S)-3-[2-(3-pyridyl)ethyl]-1,8,8-trimethyl-3-azabicyclo [3.2.1] octane], at σ-receptor, the Ki was 79.5 nM.

Turning to `CC1(C)C2CC[C@]1(C)CN(CCc1ccncc1)C2` [Example 53, (1S)-3-[2-(4-pyridyl)ethyl]-1,8,8-trimethyl-3-azabicyclo [3.2.1] octane], on σ-receptor, the Ki is 21.5 nM.

On to `CC1(C)C2CC[C@]1(C)CN(CCc1cccs1)C2` [Example 55, (1S)-3-[2-(2-thienyl)ethyl]-1,8,8-trimethyl-3-azabicyclo [3.2.1] octane], for which, on σ-receptor, the Ki turned out to be 7.04 nM.

For the compound “(1S)-3-[2-(1-norbornyl)ethyl]-1,8,8-trimethyl-3-azabicyclo [3,2,1] octane [Example 2]”, the Ki on σ-receptor is 0.39 nM.

Values taken from patent EP0661271B1, “AZEPINE DERIVATIVES, PRODUCTION THEREOF, AND USE THEREOF AS SIGMA-RECEPTOR LIGANDS” (Asahi Kasei Kogyo Kabushiki Kaisha, priority 1992, dated 1994).
